Data: PMC9714295, “DadY (PA5303) is required for fitness of Pseudomonas aeruginosa when growth is dependent on alanine catabolism” (Microbial Cell, 2022)

Assays:
DadA = molecular target: T1, DadA (Pseudomonas aeruginosa, UniProt Q9HTQ0); assay: semicarbazone formation, A248; assay type: biochemical; settings: 7.5 mM D-alanine; 10 mM semicarbazide, 30 uM FAD, 100 uM ubiquinone-1; pH 8.7, 25 C; no DadY
T1 construct: gene dadA1
T1 sequence (Q9HTQ0 1-432): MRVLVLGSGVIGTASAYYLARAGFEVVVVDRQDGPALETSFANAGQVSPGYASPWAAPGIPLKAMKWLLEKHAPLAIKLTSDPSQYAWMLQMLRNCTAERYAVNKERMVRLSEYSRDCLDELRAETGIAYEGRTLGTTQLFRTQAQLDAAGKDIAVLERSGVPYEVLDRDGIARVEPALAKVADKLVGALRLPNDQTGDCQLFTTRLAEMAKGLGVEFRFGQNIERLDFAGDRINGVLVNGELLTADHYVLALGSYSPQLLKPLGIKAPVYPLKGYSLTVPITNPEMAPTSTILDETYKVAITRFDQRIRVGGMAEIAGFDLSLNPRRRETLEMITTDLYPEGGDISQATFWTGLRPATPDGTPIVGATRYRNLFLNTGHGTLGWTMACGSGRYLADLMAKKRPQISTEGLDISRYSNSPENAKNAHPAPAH

DadY (PA5303) = molecular target: T2, DadY (PA5303) (Pseudomonas aeruginosa, UniProt Q9HTQ1); assay: semicarbazone competition assay, A248, imine generated by DadA; assay type: biochemical; settings: imine made in situ from 7.5 mM D-alanine by 0.5 uM DadA; 5 uM DadY; 10 mM semicarbazide, FAD, ubiquinone-1; pH 8.7, 25 C
T2 sequence (Q9HTQ1 1-117): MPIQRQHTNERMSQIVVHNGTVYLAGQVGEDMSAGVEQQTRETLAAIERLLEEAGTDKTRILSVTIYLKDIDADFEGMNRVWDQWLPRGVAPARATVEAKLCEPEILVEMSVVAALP

SMILES | semicarbazone formation, A248 (DadA) | semicarbazone competition assay, A248, imine generated by DadA (DadY (PA5303))
C[C@@H](N)C(=O)O [D-alanine] | When DadA used D-alanine as a substrate and semicarbazide was present, a semicarbazone compound was formed | 
CC(=N)C(=O)O [imino-alanine] |  | DadY could act on the imine derived from D-alanine that was generated by DadA
